Measurements: patent US4150023A, “Hydrosoluble rifamycins and process for their preparation” (Intreprinderea de Antibiotice Iasi, priority 1977, dated 1979)
In brackets after ≈: the same amount, converted by molar mass. Structures can show the parent of a compound that is named as a salt.

test system: not listed separately; test: physchem; type: physicochemical; conditions: not given
Experimental: When the work is carried out as in above mentioned examples, using 2 mol of sodium ethylhexanoate versus 1 mol of rifamycin derivative, the soluble forms of other derivatives, presented in Table 1, are obtained using the specific volumes of solvent, and resulting in the products characterized by the main proprieties tabulated.

Solubility soluble form | Compound
over 100 mg/ml | CO[C@H]1/C=C/O[C@@]2(C)Oc3c(C)c(O)c4c(O)c(c(C=NO)c(O)c4c3C2=O)NC(=O)/C(C)=C\C=C\[C@H](C)[C@H](O)[C@@H](C)[C@@H](O)[C@@H](C)[C@H](OC(C)=O)[C@@H]1C [Example 7, 3-formylrifamycin SV oxime]
25000 µg/mL | CO[C@H]1/C=C/O[C@@]2(C)Oc3c(C)c(O)c4c(O)c(c(C=NO)c(O)c4c3C2=O)NC(=O)/C(C)=C\C=C\[C@H](C)[C@H](O)[C@@H](C)[C@@H](O)[C@@H](C)[C@H](OC(C)=O)[C@@H]1C [Example 8, 3-formylrifamycin SV oxime (K salt)]

same assay, conditions: Solubility as such

Compound | solubility [µg/mL]
CO[C@H]1/C=C/O[C@@]2(C)Oc3c(C)c(O)c4c(O)c(c(C=NNc5ccc(-c6ccc(C)c(C)c6)nn5)c(O)c4c3C2=O)NC(=O)/C(C)=C\C=C\[C@H](C)[C@H](O)[C@@H](C)[C@@H](O)[C@@H](C)[C@H](OC(C)=O)[C@@H]1C [3-[3'-(3",4"-dimethylphenyl)-pyridazinyl-6'-hydrazonomethyl]-rifamycin SV, reference compound] | < 100
CO[C@H]1/C=C/O[C@@]2(C)Oc3c(C)c(O)c4c(O)c(c(C=NNC(=O)c5ccncc5)c(O)c4c3C2=O)NC(=O)/C(C)=C\C=C\[C@H](C)[C@H](O)[C@@H](C)[C@@H](O)[C@@H](C)[C@H](OC(C)=O)[C@@H]1C [3-(isonicotinoylhydrazonomethyl)-rifamycin SV, reference compound] | 920 (≈ 1.09 mM)
CO[C@H]1/C=C/O[C@@]2(C)Oc3c(C)c(O)c4c(O)c(c(C=NNC(=O)COc5ccccc5)c(O)c4c3C2=O)NC(=O)/C(C)=C\C=C\[C@H](C)[C@H](O)[C@@H](C)[C@@H](O)[C@@H](C)[C@H](OC(C)=O)[C@@H]1C [3-phenoxyacetylhydrazonomethyl)-rifamysin SV, reference compound] | 2750 (≈ 3.15 mM)
CO[C@H]1/C=C/O[C@@]2(C)Oc3c(C)c(O)c4c(O)c(c(C=NNC(=O)Cc5ccccc5)c(O)c4c3C2=O)NC(=O)/C(C)=C\C=C\[C@H](C)[C@H](O)[C@@H](C)[C@@H](O)[C@@H](C)[C@H](OC(C)=O)[C@@H]1C [3-(phenylacetylhydrazonomethyl)-rifamycin SV, reference compound] | 4800 (≈ 5.59 mM)
CO[C@H]1/C=C/O[C@@]2(C)Oc3c(C)c(O)c4c(O)c(c(C=NNc5ccc(-c6ccc(C)cc6)nn5)c(O)c4c3C2=O)NC(=O)/C(C)=C\C=C\[C@H](C)[C@H](O)[C@@H](C)[C@@H](O)[C@@H](C)[C@H](OC(C)=O)[C@@H]1C [3-[3'-(p-tolyl)-pyridazinyl-6'-hydrazonomethyl]-rifamycin SV, reference compound] | 270 (≈ 0.297 mM)

The remaining lines, values ahead:

solubility [µg/mL] | Compound
2950 (≈ 3.48 mM) | CO[C@H]1/C=C/O[C@@]2(C)Oc3c(C)c(O)c4c(O)c(c(C=NOCCBr)c(O)c4c3C2=O)NC(=O)/C(C)=C\C=C\[C@H](C)[C@H](O)[C@@H](C)[C@@H](O)[C@@H](C)[C@H](OC(C)=O)[C@@H]1C [3-(2-bromethyloximinomethyl)-rifamycin SV, reference compound]
120 (≈ 0.156 mM) | CCON=Cc1c2c(O)c3c(O)c(C)c4c(c3c1O)C(=O)[C@@](C)(O/C=C/[C@H](OC)[C@@H](C)[C@@H](OC(C)=O)[C@H](C)[C@H](O)[C@H](C)[C@@H](O)[C@@H](C)/C=C/C=C(/C)C(=O)N2)O4 [3-(ethyloximinomethyl)rifamycin SV, reference compound]
5500 (≈ 7.42 mM) | CO[C@H]1/C=C/O[C@@]2(C)Oc3c(C)c(O)c4c(O)c(c(C=NO)c(O)c4c3C2=O)NC(=O)/C(C)=C\C=C\[C@H](C)[C@H](O)[C@@H](C)[C@@H](O)[C@@H](C)[C@H](OC(C)=O)[C@@H]1C [3-formylrifamycin SV oxime, reference compound]

same assay, conditions: Solubility soluble form

Compound | solubility [µg/mL]
CO[C@H]1/C=C/O[C@@]2(C)Oc3c(C)c(O)c4c(O)c(c(C=NNC(=O)Cc5ccccc5)c(O)c4c3C2=O)NC(=O)/C(C)=C\C=C\[C@H](C)[C@H](O)[C@@H](C)[C@@H](O)[C@@H](C)[C@H](OC(C)=O)[C@@H]1C [Example 14, 3-(phenylacetylhydrazonomethyl)-rifamycin SV] | 71000 (≈ 82.8 mM)
CO[C@H]1/C=C/O[C@@]2(C)Oc3c(C)c(O)c4c(O)c(c(C=NNC(=O)c5ccncc5)c(O)c4c3C2=O)NC(=O)/C(C)=C\C=C\[C@H](C)[C@H](O)[C@@H](C)[C@@H](O)[C@@H](C)[C@H](OC(C)=O)[C@@H]1C [Example 13, 3-(isonicotinoylhydrazonomethyl)-rifamycin SV] | 168000 (≈ 199 mM)
CO[C@H]1/C=C/O[C@@]2(C)Oc3c(C)c(O)c4c(O)c(c(C=NNC(=O)COc5ccccc5)c(O)c4c3C2=O)NC(=O)/C(C)=C\C=C\[C@H](C)[C@H](O)[C@@H](C)[C@@H](O)[C@@H](C)[C@H](OC(C)=O)[C@@H]1C [Example 15] | 128000 (≈ 146 mM)
CO[C@H]1/C=C/O[C@@]2(C)Oc3c(C)c(O)c4c(O)c(c(C=NNc5ccc(-c6ccc(C)cc6)nn5)c(O)c4c3C2=O)NC(=O)/C(C)=C\C=C\[C@H](C)[C@H](O)[C@@H](C)[C@@H](O)[C@@H](C)[C@H](OC(C)=O)[C@@H]1C [Example 11, 3-[3'-(p-tolyl)-pyridazinyl-6'-hydrazonomethyl]-rifamycin SV] | 540 (≈ 0.595 mM)
CO[C@H]1/C=C/O[C@@]2(C)Oc3c(C)c(O)c4c(O)c(c(C=NNc5ccc(-c6ccc(C)c(C)c6)nn5)c(O)c4c3C2=O)NC(=O)/C(C)=C\C=C\[C@H](C)[C@H](O)[C@@H](C)[C@@H](O)[C@@H](C)[C@H](OC(C)=O)[C@@H]1C [Example 12, 3-[3'-(3",4"-dimethylphenyl)-pyridazinyl-6'-hydrazonomethyl]-rifamycin SV] | 540 (≈ 0.586 mM)

More lines, now with the values ahead:

solubility [µg/mL] | Compound
> 100000 | CO[C@H]1/C=C/O[C@@]2(C)Oc3c(C)c(O)c4c(O)c(c(C=NOCCBr)c(O)c4c3C2=O)NC(=O)/C(C)=C\C=C\[C@H](C)[C@H](O)[C@@H](C)[C@@H](O)[C@@H](C)[C@H](OC(C)=O)[C@@H]1C [Example 10, 3-(2-bromethyloximinomethyl)-rifamycin SV]
> 100000 | CCON=Cc1c2c(O)c3c(O)c(C)c4c(c3c1O)C(=O)[C@@](C)(O/C=C/[C@H](OC)[C@@H](C)[C@@H](OC(C)=O)[C@H](C)[C@H](O)[C@H](C)[C@@H](O)[C@@H](C)/C=C/C=C(/C)C(=O)N2)O4 [Example 9, 3-(ethyloximinomethyl)rifamycin SV]

test system: ill subjects treated with rifampicin; test: not given; conditions: cited from earlier work

Compound | unsuccessful therapeutic treatments caused by hepatobiliar alterations
CO[C@H]1/C=C/O[C@@]2(C)Oc3c(C)c(O)c4c(O)c(c(/C=N/N5CCN(C)CC5)c(O)c4c3C2=O)NC(=O)/C(C)=C\C=C\[C@H](C)[C@H](O)[C@@H](C)[C@@H](O)[C@@H](C)[C@H](OC(C)=O)[C@@H]1C [rifampicin] | over 10%
